How the values were obtained:
[1] = Hemolytic activity in human RBC at 100 ug/ml incubated for 1 hr; type: toxicity, cell-based, Erythrocyte; settings: human red blood cells (erythrocytes), at 100 µg/mL, read-out: Activity
[2] = test system: Staphylococcus aureus; test: Bactericidal activity against Staphylococcus aureus incubated for overnight; type: functional
[3] = test system: Acinetobacter baumannii; test: Bactericidal activity against Acinetobacter baumannii incubated for overnight; type: functional
[4] = test system: Staphylococcus haemolyticus; test: Antibacterial activity against Staphylococcus haemolyticus incubated for 16 to 20 hrs; type: functional; settings: time 16-20 hrs
[5] = test system: Escherichia coli; test: Antibacterial activity against Escherichia coli incubated for 16 to 20 hrs; type: functional; settings: time 16-20 hrs
[6] = test system: Vibrio harveyi; test: Antibacterial activity against Vibrio harveyi incubated for 16 to 20 hrs; type: functional; settings: time 16-20 hrs
[7] = test system: Aeromonas hydrophila; test: Antibacterial activity against Aeromonas hydrophila incubated for 16 to 20 hrs; type: functional; settings: time 16-20 hrs
[8] = test system: Enterococcus faecium; test: Antibacterial activity against Enterococcus faecium incubated for 16 to 20 hrs; type: functional; settings: time 16-20 hrs
[9] = test system: Vibrio vulnificus; test: Bactericidal activity against Vibrio vulnificus V3 incubated overnight; type: functional
[10] = test system: Vibrio anguillarum; test: Bactericidal activity against Listonella anguillarum incubated overnight; type: functional
[11] = test system: Streptococcus iniae; test: Antibacterial activity against Streptococcus iniae incubated for 16 to 20 hrs; type: functional; settings: time 16-20 hrs
[12] = test system: Vibrio vulnificus; test: Bactericidal activity against Vibrio vulnificus V2 incubated overnight; type: functional
[13] = test system: Vibrio vulnificus; test: Antibacterial activity against Vibrio vulnificus 204 incubated for 16 to 20 hrs; type: functional; settings: time 16-20 hrs
[14] = test system: Klebsiella pneumoniae; test: Bactericidal activity against NDM Klebsiella pneumoniae incubated overnight; type: functional
[15] = test system: Aeromonas hydrophila; test: Bactericidal activity against Aeromonas hydrophila incubated overnight; type: functional
[16] = test system: Klebsiella oxytoca; test: Antibacterial activity against Klebsiella oxytoca incubated for 16 to 20 hrs; type: functional; settings: time 16-20 hrs
[17] = test system: Streptococcus agalactiae; test: Antibacterial activity against Streptococcus agalactiae incubated for 16 to 20 hrs; type: functional; settings: time 16-20 hrs
[18] = test system: Staphylococcus haemolyticus; test: Bactericidal activity against Staphylococcus haemolyticus incubated overnight; type: functional
[19] = test system: Nakaseomyces glabratus; test: Fungicidal activity against Candida glabrata incubated overnight; type: functional
[20] = test system: Vibrio vulnificus; test: Bactericidal activity against Vibrio vulnificus V1 incubated overnight; type: functional
[21] = test system: Salmonella typhimurium; test: Bactericidal activity against Salmonella typhimurium incubated overnight; type: functional, Salmonella enterica subsp. enterica serovar Typhimurium; settings: Salmonella enterica
[22] = test system: Enterococcus faecalis; test: Bactericidal activity against Enterococcus faecalis incubated overnight; type: functional
[23] = test system: Pseudomonas aeruginosa; test: Bactericidal activity against Pseudomonas aeruginosa incubated overnight; type: functional
[24] = test system: Escherichia coli; test: Bactericidal activity against Escherichia coli incubated overnight; type: functional
[25] = test system: Enterococcus faecium; test: Bactericidal activity against Enterococcus faecium incubated overnight; type: functional
[26] = test system: Klebsiella aerogenes; test: Antibacterial activity against Enterobacter aerogenes incubated for 16 to 20 hrs; type: functional; settings: time 16-20 hrs
[27] = test system: Vibrio vulnificus; test: Antibacterial activity against Vibrio vulnificus V2 incubated for 16 to 20 hrs; type: functional; settings: time 16-20 hrs
[28] = test system: Vibrio alginolyticus; test: Bactericidal activity against Vibrio alginolyticus incubated overnight; type: functional
[29] = test system: Edwardsiella tarda; test: Antibacterial activity against Edwardsiella tarda incubated for 16 to 20 hrs; type: functional; settings: time 16-20 hrs
[30] = test system: Streptococcus iniae; test: Bactericidal activity against Streptococcus iniae incubated overnight; type: functional
[31] = test system: Salmonella enterica; test: Antibacterial activity against Salmonella enterica incubated for 16 to 20 hrs; type: functional; settings: time 16-20 hrs
[32] = test system: Pseudomonas aeruginosa; test: Antibacterial activity against Pseudomonas aeruginosa incubated for 16 to 20 hrs; type: functional; settings: time 16-20 hrs
[33] = test system: Candida tropicalis; test: Antifungal activity against Candida tropicalis incubated for 16 to 20 hrs; type: functional; settings: time 16-20 hrs
[34] = test system: Vibrio vulnificus; test: Antibacterial activity against Vibrio vulnificus V3 incubated for 16 to 20 hrs; type: functional; settings: time 16-20 hrs
[35] = test system: Nakaseomyces glabratus; test: Antifungal activity against Candida glabrata incubated for 16 to 20 hrs; type: functional; settings: time 16-20 hrs
[36] = test system: Candida tropicalis; test: Fungicidal activity against Candida tropicalis incubated overnight; type: functional
[37] = test system: Vibrio alginolyticus; test: Antibacterial activity against Vibrio alginolyticus incubated for 16 to 20 hrs; type: functional; settings: time 16-20 hrs
[38] = test system: Edwardsiella tarda; test: Bactericidal activity against Edwardsiella tarda incubated overnight; type: functional
[39] = test system: Klebsiella aerogenes; test: Bactericidal activity against Enterobacter aerogenes incubated overnight; type: functional
[40] = test system: Enterococcus faecalis; test: Antibacterial activity against Enterococcus faecalis incubated for 16 to 20 hrs; type: functional; settings: time 16-20 hrs
[41] = test system: Vibrio vulnificus; test: Bactericidal activity against Vibrio vulnificus 204 incubated overnight; type: functional
[42] = test system: Salmonella enterica; test: Bactericidal activity against Salmonella enterica incubated overnight; type: functional
[43] = test system: Vibrio harveyi; test: Bactericidal activity against Vibrio harveyi incubated overnight; type: functional
[44] = test system: Klebsiella pneumoniae; test: Antibacterial activity against NDM Klebsiella pneumoniae incubated for 16 to 20 hrs; type: functional; settings: time 16-20 hrs
[45] = test system: Klebsiella oxytoca; test: Bactericidal activity against Klebsiella oxytoca incubated overnight; type: functional
[46] = test system: Vibrio vulnificus; test: Antibacterial activity against Vibrio vulnificus V1 incubated for 16 to 20 hrs; type: functional; settings: time 16-20 hrs
[47] = test system: Streptococcus agalactiae; test: Bactericidal activity against Streptococcus agalactiae incubated overnight; type: functional
[48] = test system: Vibrio anguillarum; test: Antibacterial activity against Listonella anguillarum incubated for 16 to 20 hrs; type: functional; settings: time 16-20 hrs
[49] = test system: Salmonella typhimurium; test: Antibacterial activity against Salmonella typhimurium incubated for 16 to 20 hrs; type: functional, Salmonella enterica subsp. enterica serovar Typhimurium; settings: Salmonella enterica; time 16-20 hrs

For H-FKWKSVLKIVDIFVDIYF-OH, the hemolysis at 1 h, 100 ug/ml [1] was 67.8%, the MBC [2] was greater than 100 µg/mL and the MBC [3] was greater than 100 µg/mL.
Work on H-FKWKSVLKIVKIFVDIYF-OH yielded a hemolysis at 1 h, 100 ug/ml [1] of 48.1%, an MBC [2] greater than 100 µg/mL and an MBC [3] greater than 100 µg/mL.
In the case of H-FKWKSVLKIVKIFVKIYF-OH, the hemolysis at 1 h, 100 ug/ml [1] is reported as 14.2%, the MBC [2] is reported as greater than 100 µg/mL and the MBC [3] is reported as 12.5 µg/mL.
Work on H-GECIWDAIFHGAKHFLHRLVNP-OH yielded a hemolysis at 1 h, 100 ug/ml [1] of 28.5%, an MBC [2] greater than 100 µg/mL and an MBC [3] greater than 100 µg/mL.
With H-GKCIAKAIFKGAKKFLKKLVNP-OH the hemolysis at 1 h, 100 ug/ml [1] was 16.7%, the MBC [2] was greater than 100 µg/mL and the MBC [3] was 3.12 µg/mL.
With H-GKCIAKAIFKGAKKLLKKLVNP-OH the hemolysis at 1 h, 100 ug/ml [1] was 25.8%, the MBC [2] was 100 µg/mL and the MBC [3] was 3.12 µg/mL.
Work on H-GKCIAKAILKGAKKLLKKLVNP-OH yielded a hemolysis at 1 h, 100 ug/ml [1] of 31.8%, an MBC [2] of 100 µg/mL and an MBC [3] of 1.56 µg/mL.
In the case of H-GKCIWKAIFKGAKKFLKKLVNP-OH, the hemolysis at 1 h, 100 ug/ml [1] is reported as 72.4%, the MBC [2] is reported as 50 µg/mL and the MBC [3] is reported as 1.56 µg/mL.
Work on H-KKCIAKAILKKADDLLDDLVNP-OH yielded a hemolysis at 1 h, 100 ug/ml [1] of 0%, an MBC [2] greater than 100 µg/mL and an MBC [3] greater than 100 µg/mL.
Substance H-KKCIAKAILKKAKDLLDDLVNP-OH has a hemolysis at 1 h, 100 ug/ml [1] of 0%, an MBC [2] greater than 100 µg/mL and an MBC [3] of 50 µg/mL.
For H-KKCIAKAILKKAKKLLDDLVNP-OH, the hemolysis at 1 h, 100 ug/ml [1] was 0%, the MBC [2] was greater than 100 µg/mL and the MBC [3] was 6.25 µg/mL.
Substance H-KKCIAKAILKKAKKLLKDLVNP-OH has an MIC [4] of less than 1.56 µg/mL, an MIC [5] of 50 µg/mL and a hemolysis at 1 h, 100 ug/ml [1] of 3.7%. For the same substance, the MIC [6] was greater than 100 µg/mL, the MIC [7] was greater than 100 µg/mL and the MIC [8] was greater than 100 µg/mL. It also gave an MBC [9] of 12.5 µg/mL, an MBC [10] of 100 µg/mL and an MIC [11] of 3.12 µg/mL. It also gave an MBC [12] of 12.5 µg/mL, an MIC [13] of 12.5 µg/mL and an MBC [14] of 50 µg/mL. For the same substance, the MBC [15] was greater than 100 µg/mL, the MIC [16] was 50 µg/mL and the MIC [17] was 3.12 µg/mL. It also gave an MBC [18] of less than 1.56 µg/mL, an MFC [19] greater than 100 µg/mL and an MBC [20] of 12.5 µg/mL. It also gave an MBC [21] of 100 µg/mL, an MBC [22] greater than 100 µg/mL and an MBC [23] greater than 100 µg/mL. The MBC [24] was 50 µg/mL, the MBC [25] was greater than 100 µg/mL and the MIC [26] was 12.5 µg/mL. For the same substance, the MIC [27] was 12.5 µg/mL, the MBC [28] was 6.25 µg/mL and the MIC [29] was greater than 100 µg/mL. For the same substance, the MBC [30] was 3.12 µg/mL, the MIC [31] was 25 µg/mL and the MBC [2] was greater than 100 µg/mL. For the same substance, the MIC [32] was 100 µg/mL, the MIC [33] was greater than 100 µg/mL and the MIC [34] was 12.5 µg/mL. The MIC [35] was greater than 100 µg/mL, the MFC [36] was greater than 100 µg/mL and the MIC [37] was 6.25 µg/mL. The MBC [38] was greater than 100 µg/mL, the MBC [39] was 12.5 µg/mL and the MIC [40] was 50 µg/mL. The MBC [41] was 12.5 µg/mL, the MBC [42] was 25 µg/mL and the MBC [43] was greater than 100 µg/mL. For the same substance, the MIC [44] was 50 µg/mL, the MBC [45] was 50 µg/mL and the MIC [46] was 12.5 µg/mL. The MBC [47] was 3.12 µg/mL, the MIC [48] was 50 µg/mL and the MIC [49] was 100 µg/mL. The MBC [3] was 1.56 µg/mL.

Reference: ChEMBL document CHEMBL5346873, “Strategic modification of low-activity natural antimicrobial peptides confers antibacterial potential in vitro and in vivo” (Eur J Med Chem, 2023)
